Literature values as cited in paper PMC8170883 (Viruses, 2021).

Tests used:
SARS-Cov-2 = conditions: cell cultures
SARS-CoV-2 nsp12 (RdRp) = conditions: blocks binding of RNA to the enzyme

SMILES	Antiviral effect against SARS-CoV-2 (SARS-Cov-2)	Inhibition of RdRp (SARS-CoV-2 nsp12 (RdRp))
CCN(CC)CCCC(C)Nc1ccnc2cc(Cl)ccc12 (stereo not shown) [Chloroquine, chloroquine]	antiviral effects	
CCN(CC)CCCC(C)Nc1c2ccc(Cl)cc2nc2ccc(OC)cc12 (stereo not shown) [Quinacrine, quinacrine]	antiviral effects	
Cc1ccc(C(=O)Nc2ccc(S(=O)(=O)O)c3cc(S(=O)(=O)O)cc(S(=O)(=O)O)c23)cc1NC(=O)c1cccc(NC(=O)Nc2cccc(C(=O)Nc3cc(C(=O)Nc4ccc(S(=O)(=O)O)c5cc(S(=O)(=O)O)cc(S(=O)(=O)O)c45)ccc3C)c2)c1 [Suramin]	antiviral effects	potent inhibitor
